Laboratory results reported in patent publication US12552776B2, “Crystalline forms” (priority 2021, dated 2026).
Counter-ions that a name gives are not always drawn.

Assays:
[1] = assay type: physicochemical; settings: for other arising degradation products (not existing at Day 0) / remaining: 40° C./75% RH, storage period of 50 days, HPLC
Method: (§1) • HPLC data are obtained by Waters Alliance 2695 HPLC system with 2996 PDA detector using the following conditions; • Column: XBridge Phenyl (3.5 micrometers, 4.6×150 mm), • Eluent: acetonitrile/0.3% perchloric acid=35:65, • Detection: UV at 215 nm, • Flow rate: 1 mL/min, and • Column temperature: 40° C.
Solid-state stability study is performed using Nagano Science Constant temperature/humidity control chamber LH-20-11M, LH-21-11M, LTL-200D3CJ-14 or LTX-01. The samples are placed in the chamber and exposed under 25° C./60% RH, 40° C./75% RH and/or irradiated with the light such as D65 lamp or Xenon lamp. The crystalline form, thermal behavior, purity and/or weight change of the resultant sample after the exposure or irradiation are evaluated by XRPD, TG/DTA or DSC, HPLC, microbalance, respectively.

[2] = Hygroscopicity study by dynamic vapor sorption (DVS) analysis; assay type: physicochemical; settings: for weight gain %: 25° C., DVS sorption; for water absorbed (water adsorption): 90% RH at 25° C.
Method: Hygroscopicity study is performed using Surface Measurement Systems DVS-1. The sample is placed on a microbalance in the instrument and the weight change during the sorption at 25° C. is monitored. One of the programs consists of a sorption scan from 0 to 90% relative humidity (RH) at 5% RH increments and the sample is allowed to equilibrate for 360 minutes or until equilibration had been attained at each step.
The hygroscopicity study is performed by using dynamic vapor sorption (DVS) analysis.

[3] = Photostability study, D65 lamp 4000 lux, 25° C./60% RH, HPLC; assay type: physicochemical
Method: as §1
Photostability samples are set in Nagano Science LTL-200D3CJ-14. The samples are placed in the chamber and stored under 25° C./60% RH condition and irradiated with a D65 lamp on light condition of 4000 lux. HCl-salt Crystalline Form A, HCl-salt Amorphous, and Free-base Amorphous samples store for 13, 26 and 50 days under the condition are analyzed by HPLC, respectively.
FIGS. 7, 8 and 9 show the data of degradation products except for the existing products at initial samples (Day 0), i.e., definitely arising peaks on the HPLC chart after storing initial samples under light exposure. The relative retention time (RRT) represents a ratio of retention time (RT) of a target peak to RT of the main peak. In case of the appearance of the peak at same RRT at least two consecutive storing periods of 13, 26 and 50 days, the arising peak is recognized as a degradation product.

Chiral analysis by HPLC = assay type: physicochemical; settings: CHIRALPAK IC HPLC
Method: • High Performance Liquid Chromatography (HPLC) measurement • HPLC data are obtained by Waters Alliance 2695 HPLC system with 2996 PDA detector using the following conditions; • Column: DAICEL CHIRALPAK IC (5 micrometers, 4.6×250 mm), • Eluent: n-hexane/ethanol/diethylamine=87/13/0.1 (v/v/v), • Detection: UV at 254 nm, • Flow rate: 1 mL/min, and • Column temperature: 40° C. • Data processing is performed with Empower 3 software supplied from Waters Corporation

[4] = Solubility study in buffers and water for injection; assay type: physicochemical; settings: aqueous buffer, thermodynamic from solid, buffers pH 1.06, 2.98, 4.44, 7.34, 7.40, 9.22 and WFI, 5 mg in 20 microL
Method: Each 5 mg of HCl-salt Crystalline Form A was weighed in a vial and each 20 microL of buffers (pH 1.06, 2.98, 4.44, 7.34, 7.40 and 9.22) and WFI (water for injection) was added to the vial. After the mixture was shaken with a vortex mixer and stood still for 15 min, no insoluble matter was observed. The mixture kept a clear solution after still standing for 2 days.

motilin receptor = biological target: T1, motilin receptor (Homo sapiens, UniProt O43193); experiment: Motilin receptor agonistic activity, reporter gene assay; assay type: cell-based; settings: cell expressing motilin receptor and reporter gene; compared with initial sample
T1 construct: 'the cell expressing motilin receptor and reporter gene'
Excerpt: Motilin receptor agonistic activity is identified by reporter gene assay using the cell expressing motilin receptor and reporter gene. The dose-response curve of assay sample is plotted and calculated to determine an agonistic activity (EC50).

T1 sequence (O43193 whole entry, species assumed): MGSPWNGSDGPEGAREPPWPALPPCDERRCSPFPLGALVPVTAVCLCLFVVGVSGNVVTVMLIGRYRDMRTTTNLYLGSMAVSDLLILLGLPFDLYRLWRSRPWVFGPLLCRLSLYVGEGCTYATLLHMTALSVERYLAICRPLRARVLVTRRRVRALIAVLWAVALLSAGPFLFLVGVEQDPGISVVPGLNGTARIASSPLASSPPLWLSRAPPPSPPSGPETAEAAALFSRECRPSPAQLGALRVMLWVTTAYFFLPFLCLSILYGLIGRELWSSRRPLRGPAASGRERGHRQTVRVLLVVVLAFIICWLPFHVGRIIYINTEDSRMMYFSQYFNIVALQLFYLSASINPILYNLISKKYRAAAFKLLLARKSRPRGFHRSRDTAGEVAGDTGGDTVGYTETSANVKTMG

SMILES | other arising degradation products (not existing at Day 0) [1] | remaining [1] | weight gain % ([2]; 50% RH) | weight gain % ([2]; 60% RH) | weight gain % ([2]; 70% RH) | weight gain % ([2]; 80% RH) | water absorbed (water adsorption) [2] | weight gain % ([2]; 90% RH) | arising degradation products (peaks) due to irradiating light ([3]; 13 days) | arising degradation products (peaks) due to irradiating light ([3]; 26 days) | arising degradation products (peaks) due to irradiating light ([3]; 50 days) | stability in chiral analysis (Chiral analysis by HPLC) | other results
CC1(C)C(=O)N(C2CCN(C(=O)[C@H](CCc3ccccc3)NC(=O)[C@@H]3CCCNC3)CC2)c2ccccc21 [Free-base Amorphous, (R)—N—((S)-1-(4-(3,3-dimethyl-2-oxoindolin-1-yl)piperidin-1-yl)-1-oxo-4-phenylbutan-2-yl)piperidine-3-carboxamide] | four | 97.2% | 5.2% | 7.1% | 9.5% | 11.7% | 17.9 wt % | 17.9% | 2 peaks | 4 peaks | 4 peaks |  | 
CC1(C)C(=O)N(C2CCN(C(=O)[C@H](CCc3ccccc3)NC(=O)[C@@H]3CCCNC3)CC2)c2ccccc21 [HCl-salt Crystalline Form A, (R)—N—((S)-1-(4-(3,3-dimethyl-2-oxoindolin-1-yl)piperidin-1-yl)-1-oxo-4-phenylbutan-2-yl)piperidine-3-carboxamide hydrochloride Crystalline Form A] | no other arising degradation products |  | 0.0% | 0.2% | 0.4% | 1.6% | less than or equal to 3.4 wt % | 3.4% |  |  |  | preferable stability | solubility at 15 min [4]: > 250 mg/mL; agonistic activity (EC50) (motilin receptor): high potency consistent with initial sample; changes in appearance, XRPD, IR (KBr), m.p. (DSC onset) and potency ([1]; during the storage period): no significant changes; arising degradation products due to irradiating light ([3]; storing periods of 13, 26 and 50 days): no arising degradation products
CC1(C)C(=O)N(C2CCN(C(=O)[C@H](CCc3ccccc3)NC(=O)[C@@H]3CCCNC3)CC2)c2ccccc21.CS(=O)(=O)O [mesylate salt crystalline, (R)—N—((S)-1-(4-(3,3-dimethyl-2-oxoindolin-1-yl)piperidin-1-yl)-1-oxo-4-phenylbutan-2-yl)piperidine-3-carboxamide methanesulfonic acid salt (mesylate salt)] |  |  |  |  |  |  | 16.9 wt % |  |  |  |  |  | water adsorption ([2]; 60% RH): 3.7 wt %
CC1(C)C(=O)N(C2CCN(C(=O)[C@H](CCc3ccccc3)NC(=O)[C@@H]3CCCNC3)CC2)c2ccccc21.O=C(O)CNC(=O)c1ccccc1 [hippurate salt crystalline, (R)—N—((S)-1-(4-(3,3-dimethyl-2-oxoindolin-1-yl)piperidin-1-yl)-1-oxo-4-phenylbutan-2-yl)piperidine-3-carboxamide hippuric acid salt (hippurate salt)] |  |  |  |  |  |  | 16.0 wt % |  |  |  |  |  | observation in hygroscopicity study ([2]; 90% RH): partial deliquescence is observed
CC1(C)C(=O)N(C2CCN(C(=O)[C@H](CCc3ccccc3)NC(=O)[C@@H]3CCCNC3)CC2)c2ccccc21.Cl [HCl-salt Crystalline Form B, (R)—N—((S)-1-(4-(3,3-dimethyl-2-oxoindolin-1-yl)piperidin-1-yl)-1-oxo-4-phenylbutan-2-yl)piperidine-3-carboxamide hydrochloride Crystalline Form B] |  |  | 0.0% | 0.0% | 0.0% | 4.9% | ≤ 8.6 wt % | 8.6% |  |  |  | preferable stability | 
CC1(C)C(=O)N(C2CCN(C(=O)[C@H](CCc3ccccc3)NC(=O)[C@@H]3CCCNC3)CC2)c2ccccc21.Cl [HCl-salt Amorphous, (R)—N—((S)-1-(4-(3,3-dimethyl-2-oxoindolin-1-yl)piperidin-1-yl)-1-oxo-4-phenylbutan-2-yl)piperidine-3-carboxamide amorphous solid of hydrochloride] | one | 97.0% |  |  |  |  |  |  | 2 peaks | 5 peaks | 5 peaks |  | weight gain % ([2]; 50% RH, hydrochloride): 5.2%; weight gain % ([2]; 60% RH, hydrochloride): 7.6%; weight gain % ([2]; 70% RH, hydrochloride): 9.4%; weight gain % ([2]; 80% RH, hydrochloride): 13.3%; water absorbed (water adsorption) ([2]; hydrochloride): 20.5 wt %; weight gain % ([2]; 90% RH, hydrochloride): 20.5%
